Test results: patent US20100260818A1, “STABLE MEDICATED CHEWING GUM COMPRISING CYCLODEXTRIN INCLUSION COMPLEX” (FERTIN PHARMA A/S, priority 2007, published 2010)
Values joined by “and” are separate entries in the source; they are usually repeats but may differ in a detail not shown here. Equal values may be shown once.

Experiments:
[1] = β-cyclodextrin content of filtrates of cetirizine.2HCL/β-cyclodextrin reaction mixture (HPLC, ELSD); type: physicochemical
[2] = Suspension homogeneity (visual) and chemical stability of cetirizine and β-cyclodextrin suspension with hydroxy acids, salts, NaOH; details: for Suspension homogeneity compared to control: visual
Experimental: The effect of different hydroxy acids, hydroxy acid salts and sodium hydroxide on the suspension homogeneity and also on the chemical stability of cetirizine in the suspensions was studied.
The cetirizine and β-cyclodextrin suspensions were prepared by stirring aqueous cetirizine solution with cyclodextrin and with the additives.

[3] = Powder sample storage stability, impurities by HPLC (Example 9); type: physicochemical; details: 34 days, 40 degrees C., 75% relative humidity; cyclodextrin and cetirizine uncomplexed in same formulation
Experimental: The four samples were stored in capped 50 mL Polyethylene Duma™ containers (Superfos Pharma Pack, Denmark) at 40 degrees C. and 75% relative humidity for 34 days, and were subsequently analysed by HPLC.

[4] = molar ratio CTZ:Additive not calculated

## O=C([O-])C(O)C(O)C(=O)[O-].[K+].[Na+] (stereo not drawn) [K—Na-tartarate, Potassium-sodium-tartarate]
[1]; molar ratio CTZ:Additive 1:5
  BCD content in the filtrate: 120 mg/mL
[2]; molar ratio CTZ:Additive 1:5
  Suspension homogeneity compared to control: better

## [Na+].[OH-] [NaOH, Sodium hydroxide]
[1]; [4]
  BCD content in the filtrate: 115 mg/mL and 125 mg/mL
[2]; [4]
  Suspension homogeneity compared to control: no significant change

## O=C([O-])CC(O)(CC(=O)[O-])C(=O)[O-].[Na+].[Na+].[Na+] [Na-citrate, Tri-sodium citrate]
[1]; molar ratio CTZ:Additive 1:4
  BCD content in the filtrate: 135 mg/mL
[2]; effective amount of additive 3-6% by weight
  Chemical degradations affecting β-cyclodextrin and cetirizine component of the binary formulation: effectively suppressed
[2]; molar ratio CTZ:Additive 1:1
  Suspension homogeneity compared to control: better
[2]; molar ratio CTZ:Additive 1:2
  Suspension homogeneity compared to control: better
[2]; molar ratio CTZ:Additive 1:3
  Suspension homogeneity compared to control: better
[2]; molar ratio CTZ:Additive 1:4
  Suspension homogeneity compared to control: better

## OC[C@H]1O[C@@H]2O[C@H]3[C@H](O)[C@@H](O)[C@@H](O[C@H]4[C@H](O)[C@@H](O)[C@@H](O[C@H]5[C@H](O)[C@@H](O)[C@@H](O[C@H]6[C@H](O)[C@@H](O)[C@@H](O[C@H]7[C@H](O)[C@@H](O)[C@@H](O[C@H]8[C@H](O)[C@@H](O)[C@@H](O[C@H]1[C@H](O)[C@H]2O)O[C@@H]8CO)O[C@@H]7CO)O[C@@H]6CO)O[C@@H]5CO)O[C@@H]4CO)O[C@@H]3CO [un-complexed cyclodextrin, Beta-cyclodextrin]
[3]
  Effect on the stability of cetirizine: does not have any significant effect

## O=C(O)C(O)C(O)C(=O)O (stereo not drawn) [Tartaric acid]
[1]; molar ratio CTZ:Additive 1:2
  BCD content in the filtrate: 130 mg/mL
[2]; molar ratio CTZ:Additive 1:2
  Suspension homogeneity compared to control: better

## O=C(O)CC(O)(CC(=O)O)C(=O)O [Citric acid]
[1]; molar ratio CTZ:Additive 1:1
  BCD content in the filtrate: 154 mg/mL
[2]; molar ratio CTZ:Additive 1:1
  Suspension homogeneity compared to control: no significant change
